Each structure is given as a SMILES string.

IC50 data for 33 compounds are collected here from patent US8778941B2, “TRPM8 antagonists and their use in treatments” (AMGEN Inc., priority 2011, dated 2014).

For this assay, the target named is T1, human TRPM8 (Homo sapiens, UniProt Q7Z2W7).
T1 construct: expressed in transfected cells; host or cells: Chinese hamster ovary (CHO) cells, T-REx tetracycline-inducible expression system (Invitrogen), co-transfected with pcDNA3.1 jellyfish aequorin
T1 sequence (Q7Z2W7 whole entry): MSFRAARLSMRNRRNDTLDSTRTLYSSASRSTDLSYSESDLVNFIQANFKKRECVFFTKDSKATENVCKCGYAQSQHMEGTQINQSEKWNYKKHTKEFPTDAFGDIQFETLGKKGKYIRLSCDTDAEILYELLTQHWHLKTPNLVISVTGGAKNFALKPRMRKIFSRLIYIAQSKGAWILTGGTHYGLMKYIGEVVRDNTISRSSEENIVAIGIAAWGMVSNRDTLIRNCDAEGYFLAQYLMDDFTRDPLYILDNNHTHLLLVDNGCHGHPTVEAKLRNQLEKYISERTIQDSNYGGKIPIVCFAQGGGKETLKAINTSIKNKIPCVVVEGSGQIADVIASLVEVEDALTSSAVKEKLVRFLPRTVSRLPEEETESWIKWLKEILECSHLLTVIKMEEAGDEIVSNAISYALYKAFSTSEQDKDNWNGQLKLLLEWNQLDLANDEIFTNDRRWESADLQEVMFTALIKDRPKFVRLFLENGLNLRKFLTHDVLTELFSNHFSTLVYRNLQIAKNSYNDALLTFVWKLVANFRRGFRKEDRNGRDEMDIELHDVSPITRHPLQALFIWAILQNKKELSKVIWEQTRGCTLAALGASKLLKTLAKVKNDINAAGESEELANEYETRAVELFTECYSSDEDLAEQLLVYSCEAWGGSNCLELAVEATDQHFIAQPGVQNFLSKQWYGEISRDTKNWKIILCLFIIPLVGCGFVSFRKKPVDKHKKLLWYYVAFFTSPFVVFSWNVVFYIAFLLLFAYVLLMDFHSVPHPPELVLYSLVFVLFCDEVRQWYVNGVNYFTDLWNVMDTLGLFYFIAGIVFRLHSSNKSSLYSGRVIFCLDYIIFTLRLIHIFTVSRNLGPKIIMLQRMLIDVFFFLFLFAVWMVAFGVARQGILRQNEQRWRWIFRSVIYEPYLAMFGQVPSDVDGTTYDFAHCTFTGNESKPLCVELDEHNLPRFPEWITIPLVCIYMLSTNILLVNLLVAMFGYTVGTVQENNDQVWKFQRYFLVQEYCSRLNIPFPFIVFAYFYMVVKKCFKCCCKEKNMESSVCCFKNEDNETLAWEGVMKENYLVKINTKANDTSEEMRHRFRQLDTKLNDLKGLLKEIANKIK
Nature of the assay: Luminescence readout assay for measuring intracellular calcium (aequorin), hTRPM8 antagonism. Type of assay: cell-based. The settings on record: CHO cell line expressing human TRPM8 and aequorin; activation by icilin, L-menthol or cold buffer (table does not say which). Here is the method:
Luminescence Readout Assay for Measuring Intracellular Calcium.
A stable Chinese hamster ovary cell line expressing human TRPM8 was generated using tetracycline inducible T-REx™ expression system from Invitrogen, Inc. (Carlsbad, Calif.). […] Twenty four hours before the assay, cells were seeded in 96-well plates and TRPM8 expression was induced with 0.5 μg/mL tetracycline. […] Potential antagonists were added 2.5 min prior to the addition of agonist, […], 100 µM L-menthol, or 1 min prior to the addition of cold buffer (<10° C.). The luminescence was measured by a CCD camera based FLASH-luminometer built by Amgen, Inc. A cooling device attached to FLASH luminometer was used for cold activation.
Consider `COc1ccc([C@H](NC(=O)Nc2cccnc2)c2ncccc2C(F)(F)F)cc1` [Example 2, (S)-1-((4-methoxy-phenyl)(3-(trifluoro-methyl)-pyridin-2-yl)-methyl)-3-(pyridin-3-yl)-urea], for which the IC50 was 0.23 µM. Then `O=C(Nc1cccnc1)N[C@@H](c1cccc(Cl)c1)c1ncccc1C(F)(F)F` [Example 3, (S)-1-((3-chlorophenyl)-(3-(trifluoro-methyl)-pyridin-2-yl)-methyl)-3-(pyridin-3-yl)-urea], with 0.172 µM; and `COc1cccc([C@H](NC(=O)Nc2cccnc2)c2ncccc2C(F)(F)F)c1` [Example 4, (S)-1-((3-methoxy-phenyl)(3-(trifluoro-methyl)-pyridin-2-yl)-methyl)-3-(pyridin-3-yl)-urea], with 1.23 µM; and `COc1ccc([C@H](NC(=O)Nc2cccnc2)c2ncccc2C(F)(F)F)cc1F` [Example 5, (S)-1-((3-fluoro-4-methoxy-phenyl)(3-(trifluoro-methyl)-pyridin-2-yl)-methyl)-3-(pyridin-3-yl)-urea], with 0.145 µM. Then `O=C(Nc1cccnc1)N[C@@H](c1cnc2ccccc2c1)c1ncccc1C(F)(F)F` [Example 6, (S)-1-(pyridin-3-yl)-3-(quinolin-3-yl(3-(trifluoro-methyl)-pyridin-2-yl)-methyl)urea], with 0.259 µM; and `Cc1cccc([C@H](NC(=O)Nc2cccnc2)c2ncccc2C(F)(F)F)c1` [Example 7, (S)-1-((3-methylphenyl) (3-(trifluoro-methyl)-pyridin-2-yl)-methyl)-3-(pyridin-3-yl)-urea], with 0.723 µM. For the compound `O=C(Nc1cccnc1)N[C@@H](c1cccc(F)c1)c1ncccc1C(F)(F)F` [Example 8, (S)-1-((3-fluorophenyl)-(3-(trifluoro-methyl)-pyridin-2-yl)-methyl)-3-(pyridin-3-yl)-urea], the IC50 was 0.593 µM. As for `O=C(Nc1cccnc1)N[C@@H](c1cccc(C(F)(F)F)c1)c1ncccc1C(F)(F)F` [Example 9, (S)-1-((3-(trifluoro-methyl)-phenyl)(3-(trifluoro-methyl)-pyridin-2-yl)-methyl)-3-(pyridin-3-yl)-urea], the figure is 0.175 µM; as for `O=C(Nc1cccnc1)N[C@@H](c1cnc2cccc(Cl)c2c1)c1ncccc1C(F)(F)F` [Example 10, (S)-1-((5-chloroquinolin-3-yl)(3-(trifluoro-methyl)-pyridin-2-yl)-methyl)-3-(pyridin-3-yl)-urea], 0.172 µM; as for `O=C(Nc1cccnc1)N[C@@H](c1ccc2ccccc2c1)c1ncccc1C(F)(F)F` [Example 11], 0.101 µM.

Regarding `O=C(Nc1cccnc1)N[C@@H](c1cnc2c(Cl)cccc2c1)c1ncccc1C(F)(F)F` [Example 12, (S)-1-((8-chloroquinolin-3-yl)(3-(trifluoro-methyl)-pyridin-2-yl)-methyl)-3-(pyridin-3-yl)-urea], the IC50 worked out at 0.088 µM. As for `O=C(Nc1cccnc1)N[C@@H](c1ccc(Cl)c(Cl)c1)c1ncccc1C(F)(F)F` [Example 13, (S)-1-((3,4-dichlorophenyl) (3-(trifluoro-methyl)-pyridin-2-yl)-methyl)-3-(pyridin-3-yl)-urea], the figure is 0.051 µM; as for `O=C(Nc1cccnc1)N[C@@H](c1cnc2c(F)cccc2c1)c1ncccc1C(F)(F)F` [Example 14, (S)-1-((8-fluoro-quinolin-3-yl)-(3-(trifluoro-methyl)-pyridin-2-yl)-methyl)-3-(pyridin-3-yl)-urea], 0.533 µM; as for `O=C(Nc1cccnc1)N[C@@H](c1ccc(OC(F)(F)F)cc1)c1ncccc1F` [Example 15, (S)-1-((3-fluoropyridin-2-yl)(4-(trifluoro-methoxy)-phenyl)-methyl)-3-(pyridin-3-yl)-urea], 0.015 µM. Then `COc1cccc2cc([C@H](NC(=O)Nc3cccnc3)c3ncccc3C(F)(F)F)cnc12` [Example 16, (S)-1-((8-methoxy-quinolin-3-yl)-(3-(trifluoro-methyl)-pyridin-2-yl)-methyl)-3-(pyridin-3-yl)-urea], with 2.26 µM; and `O=C(Nc1cccnc1)N[C@@H](c1ccc2ncccc2c1)c1ncccc1C(F)(F)F` [Example 17, (S)-1-(pyridin-3-yl)-3-(quinolin-6-yl(3-(trifluoro-methyl)-pyridin-2-yl)-methyl)urea], with 0.811 µM; and `COc1ccc2cc([C@H](NC(=O)Nc3cccnc3)c3ncccc3C(F)(F)F)cnc2c1` [Example 18, (S)-1-((7-methoxy-quinolin-3-yl)-(3-(trifluoro-methyl)-pyridin-2-yl)-methyl)-3-(pyridin-3-yl)-urea], with 0.308 µM. As for `O=C(Nc1cccnc1)N[C@@H](c1ccc(F)cc1)c1ncccc1C(F)(F)F` [Example 19, (S)-((4-fluorophenyl)-(3-(trifluoro-methyl)-pyridin-2-yl)-methyl)-3-(pyridin-3-yl)-urea], the figure is 0.382 µM; as for `O=C(Nc1cccnc1)N[C@@H](c1ccccc1)c1ncccc1C(F)(F)F` [Example 20, (S)-1-(phenyl(3-(trifluoro-methyl)-pyridin-2-yl)-methyl)-3-(pyridin-3-yl)-urea], 1.31 µM. Regarding `O=C(Nc1cccnc1)NC(c1ccc(F)c(C(F)(F)F)c1)c1ncccc1C(F)(F)F` (stereo not drawn) [Example 21, 1-((4-fluoro-3-(trifluoro-methyl)-phenyl)(3-(trifluoro-methyl)-pyridin-2-yl)-methyl)-3-(pyridin-3-yl)-urea (2,2,2-trifluoro-acetate)], the IC50 is 0.178 µM. Then `O=C(Nc1cccnc1)NC(c1ccc(F)c(C(F)(F)F)c1)c1ncccc1F` (stereo not drawn) [Example 22, 1-((4-fluoro-3-(trifluoro-methyl)-phenyl)(3-fluoropyridin-2-yl)methyl)-3-(pyridin-3-yl)urea (2,2,2-trifluoro-acetate)], with 0.201 µM; and `O=C(Nc1cccnc1)NC(c1cc(F)cc(Cl)c1)c1ncccc1C(F)(F)F` (stereo not drawn) [Example 23, 1-((3-chloro-5-fluoro-phenyl)(3-(trifluoro-methyl)-pyridin-2-yl)-methyl)-3-(pyridin-3-yl)-urea (2,2,2-trifluoro-acetate)], with 0.255 µM; and `O=C(Nc1cccnc1)NC(c1cc(F)cc(Cl)c1)c1ncccc1F` (stereo not drawn) [Example 24, 1-((3-chloro-5-fluoro-phenyl)(3-fluoropyridin-2-yl)methyl)-3-(pyridin-3-yl)urea (2,2,2-trifluoro-acetate)], with 0.674 µM. With `O=C(Nc1cccnc1)NC(c1ccc(C(F)(F)F)nc1)c1ncccc1C(F)(F)F` (stereo not drawn) [Example 25, 1-(pyridin-3-yl)-3-((3-(trifluoro-methyl)-pyridin-2-yl)-(6-(trifluoro-methyl)-pyridin-3-yl)-methyl)urea (2,2,2-trifluoro-acetate)], the IC50 was found to be 0.216 µM.

Consider `O=C(Nc1cccnc1)N[C@@H](c1ccc(Cl)cc1)c1ncccc1C(F)(F)F` [Example 26, (S)-1-((4-chlorophenyl)-(3-(trifluoro-methyl)-pyridin-2-yl)-methyl)-3-(pyridin-3-yl)-urea], for which the IC50 came to 0.248 µM. As for `CCc1ccc([C@H](NC(=O)Nc2cccnc2)c2ncccc2C(F)(F)F)cc1` [Example 27, (S)-1-((4-ethylphenyl)-(3-(trifluoro-methyl)-pyridin-2-yl)-methyl)-3-(pyridin-3-yl)-urea], the figure is 0.041 µM; as for `O=C(Nc1cccnc1)N[C@@H](c1ccc(C(F)(F)F)cc1)c1ncccc1Br` [Example 28, (S)-1-((3-bromopyridin-2-yl)(4-(trifluoro-methyl)-phenyl)-methyl)-3-(pyridin-3-yl)-urea], 0.067 µM.

On to `O=C(Nc1cccnc1)N[C@@H](c1ccc(C(F)(F)F)cc1)c1ccccn1` [Example 30, (S)-1-(pyridin-2-yl(4-(trifluoro-methyl)-phenyl)-methyl)-3-(pyridin-3-yl)-urea], for which the IC50 was 0.097 µM. As for `O=C(Nc1ccccc1)N[C@@H](c1ccc(C(F)(F)F)cc1)c1ncccc1C(F)(F)F` [Example 31, (S)-1-phenyl-3-((4-(trifluoro-methyl)-phenyl)(3-(trifluoro-methyl)-pyridin-2-yl)-methyl)urea], the figure is 0.081 µM; as for `CC(C)NC(=O)N[C@@H](c1ccc(C(F)(F)F)cc1)c1ncccc1C(F)(F)F` [Example 32, (S)-1-isopropyl-3-((4-(trifluoro-methyl)-phenyl)(3-(trifluoro-methyl)-pyridin-2-yl)-methyl)urea], 0.066 µM; as for `C[C@H](NC(=O)N[C@@H](c1ccc(C(F)(F)F)cc1)c1ncccc1C(F)(F)F)c1cccc2ccccc12` [Example 33, 1-((S)-1-(naphthalen-1-yl)ethyl)-3-((S)-(4-(trifluoro-methyl)-phenyl)(3-(trifluoro-methyl)-pyridin-2-yl)-methyl)urea (2,2,2-trifluoro-acetate)], 1.9 µM. Then `O=C(NCCCc1ccccc1)N[C@@H](c1ccc(C(F)(F)F)cc1)c1ncccc1C(F)(F)F` [Example 34, (S)-1-(3-phenylpropyl)-3-((4-(trifluoro-methyl)-phenyl)(3-(trifluoro-methyl)-pyridin-2-yl)-methyl)urea (2,2,2-trifluoro-acetate)], with 0.127 µM; and `O=C(NC(=O)Oc1ccccc1)N[C@@H](c1ccc(C(F)(F)F)cc1)c1ncccc1C(F)(F)F` [Example 35, (S)-1-(phenyl-formate)-3-((4-(trifluoro-methyl)-phenyl)(3-(trifluoro-methyl)-pyridin-2-yl)-methyl)urea (2,2,2-trifluoro-acetate)], with 1.71 µM.
